This note sets out measurements from patent publication US7045343B2, “Sterilization indicator test packs” (3M Innovative Properties Company, priority 1998, dated 2006).

In test [1] the test system is enzyme associated with Bacillus stearothermophilus spores. Put plainly: Rapid enzyme fluorescence readout of dual rapid readout indicators after prevacuum steam sterilization. As to conditions: 4-pulse prevacuum steam 121° C. Type of test: biochemical. The procedure: (§1) The indicators prepared for the Examples were dual rapid readout indicators that provided both a rapid, enzyme-based efficacy test and a confirmatory spore outgrowth test. Spores coated on the carrier strip 16 served as the source of active enzyme whose activity was measured by the rapid enzyme test. These same spores were then incubated in the spore outgrowth portion of the test.
(§2) Bacillus stearothermophilus, commercially available as ATCC 7953 from American Type Culture Collection, Rockville, Md., was grown overnight (16 hours) at 58° C. in tryptic soy broth. This culture was used to inoculate the surface of agar plates consisting of 8 g/l nutrient broth, 4 g/l yeast extract, 0.1 g/l manganese chloride and 20 g/l agar at pH 7.2. Plates were incubated at 58° C. for 72 hours. Spores were scraped from the plates and suspended in sterile distilled water. The spores were separated from the vegetative debris by centrifuging the suspension at 7000 rpm and 4° C. for 20 minutes. The supernatant was poured off and the spores were resuspended in sterile distilled water. The cleaning procedure was repeated several times. After the final wash, the spores were suspended in sterile distilled water, at a concentration of approximately 1×10^8 spores per milliliter.
(§3) The spores were then treated with the chemicals identified in Tables 1–5. All chemicals tested were obtained from commercial sources. The spores were centrifuged at 6000 rpm for 10 minutes. The supernatant and coating chemical mixtures were heated at 60–80° C. for several minutes and vortexed to get the material into solution. The spores were then mixed into the sterilant-resistant chemical solution. The sterilant-resistant chemical solution was applied to 5×25 mm, 591 A paper strips (Schleicher & Schuell, Inc., Keene, N.H.) by pipetting 10–15 microliters to each strip for a final population of about 1×10^6 spores per strip. The strips were dried 16 hours at 37° C.
(§4) The treated spore strips were placed on the bottom of the outer container 12 of the indicator 10 and a barrier was inserted between the spore strip 16 and the inner container 18, which contained enzyme substrate. A […] ( 11/16 inch) disc of polypropylene blown microfiber material, with a weight of 200 g/m^2, commercially available as “THINSULATE™ 200-B brand Thermal Insulation” from 3M Company, St. Paul, Minn., was used as the barrier. The inner container 18 contained 0.67 ml nutrient medium, consisting of 17 g of a bacteriological peptone and a 0.17 g/l of L-alanine, as well as 0.1 g 4-methylumbelliferyl-alpha-D-glucoside, commercially available from Sigma Chemical Company, St. Louis, Mo., dissolved in 200 microliters of N,N-dimethylformamide, and 0.03 g bromocresol purple pH indicator dye, per liter of water. The pH of the enzyme substrate and nutrient medium solution was adjusted to 7.6 with 0.1N sodium hydroxide.
(§5) Sterilization indicators were made as described above with each of the chemicals and concentrations described in Table 1. Control indicators were made using untreated spores. The indicators were placed in metal instrument trays and exposed at 121° C. in a Getinge Steam Sterilizer (Getinge International, Inc., 1100 Towbin Ave., Lakewood, N.J.) using a 4-pulse prevacuum cycle at 121° C. with a vacuum level of 0.075–0.085 bar and a steam pulse to 1.00 bar for each pulse. Indicators were exposed in the sterilizer for between 7 and 13 minutes. This cycle is depicted in the time-pressure diagram in FIG. 5. After exposure the inner containers containing the enzyme substrate and nutrient medium were crushed and the indicators were incubated at 60° C. The indicators were examined for fluorescence using a 3M™ ATTEST™ Model 190 Rapid Autoreader, commercially available from 3M Company, St. Paul, Minn. Additionally, spore growth, as indicated by a color change from purple to yellow, was determined visually after 168 hours of incubation at 60° C. […]

Test [2] concerns Bacillus stearothermophilus spores. Put plainly: Spore outgrowth (color change) of indicators after prevacuum steam sterilization. Type of test: cell-based. As to conditions: 4-pulse prevacuum steam 121° C. The procedure:
as §1, §2, §3, §4, §5

[3] abbreviates: Example 2, 5 mg/ml coating, 7–13 min.
[4] abbreviates: Example 2, 10 mg/ml coating, 7–13 min.
Setting [5] is: Example 2, 20 mg/ml coating, 7–13 min.
Where [6] appears, read: Example 2, 40 mg/ml coating, 7–13 min.
Where [7] appears, read: Example 2, 80 mg/ml coating, 7–13 min.
The mark [8] stands for this setting: Example 2, 100 mg/ml coating, 7–13 min.
Where [9] appears, read: Example 5, 50 mg/ml coating, 7–13 min.
[10] abbreviates: Example 5, 100 mg/ml coating, 7–13 min.
Setting [11] is: Example 4, 50 mg/ml coating, 7–18 min.
The mark [12] stands for this setting: Example 4, 100 mg/ml coating, 7–18 min.
The mark [13] stands for this setting: Example 4, 25 mg/ml coating, 7–18 min.

With `OCC(O)COCC(O)COCC(O)COCC(O)COCC(O)COCC(O)COCC(O)COCC(O)COCC(O)COCC(O)CO` (centres unmarked) [Decaglycerol], the “FLUORESCENCE - PERCENT POSITIVE 1 HR” value in test [1] (setting [3]), in test [1] (setting [4]), in test [1] (setting [5]), in test [1] (setting [6]), in test [1] (setting [7]) and in test [1] (setting [8]) was 0% throughout. For the same compound, the “FLUORESCENCE - PERCENT POSITIVE 2 HR” value in test [1] (setting [3]) turned out to be 0%; in test [1] (setting [4]) it was 0%; in test [1] (setting [5]), 0%; in test [1] (setting [6]), 0%; in test [1] (setting [7]) it was 12.0%; in test [1] (setting [8]) it was 6.9%. Further, the “FLUORESCENCE - PERCENT POSITIVE 3 HR” value turned out to be 0% in test [1] (setting [3]); 7.7% in test [1] (setting [4]); 9.1% in test [1] (setting [5]); 7.7% in test [1] (setting [6]); 36.0% in test [1] (setting [7]); 48.3% in test [1] (setting [8]). For the same compound, the “FLUORESCENCE - PERCENT POSITIVE 4 HR” value came out at 23.1% in test [1] (setting [3]); 23.1% in test [1] (setting [4]); 18.2% in test [1] (setting [5]); 42.3% in test [1] (setting [6]); 64.0% in test [1] (setting [7]); 69.0% in test [1] (setting [8]). Besides, the “FLUORESCENCE - PERCENT POSITIVE 5 HR” value is on record as 23.1% in test [1] (setting [3]); 23.1% in test [1] (setting [4]); 45.5% in test [1] (setting [5]); 46.2% in test [1] (setting [6]); 72.0% in test [1] (setting [7]); 79.3% in test [1] (setting [8]). Further, the “FLUORESCENCE - PERCENT POSITIVE 6 HR” value in test [1] (setting [3]) is 30.8%; in test [1] (setting [4]), 30.8%; in test [1] (setting [5]), 63.6%; in test [1] (setting [6]), 53.8%; in test [1] (setting [7]), 76.0%; in test [1] (setting [8]), 89.7%. Besides, the “NO. GROWTH POSITIVE 168 HR” value in test [2] (setting [3]) was determined as 13; in test [2] (setting [4]), 13; in test [2] (setting [5]) it was 11; in test [2] (setting [6]), 26; in test [2] (setting [7]) it was 25; in test [2] (setting [8]) it was 29.
On to Decaglyceryl Monomyristate, for which, in test [1], the “accuracy of sterilization indicators compared to indicators made with untreated spores” value was “improved”. Also, in test [1] (setting [9]), the “FLUORESCENCE - PERCENT POSITIVE 1 HR” value worked out at 0%, the “FLUORESCENCE - PERCENT POSITIVE 2 HR” value is listed as 33.3%, the “FLUORESCENCE - PERCENT POSITIVE 3 HR” value amounted to 33.3% and the “FLUORESCENCE - PERCENT POSITIVE 4 HR” value stood at 33.3%. For the same compound, in test [1] (setting [10]), the “FLUORESCENCE - PERCENT POSITIVE 1 HR” value stood at 0%, the “FLUORESCENCE - PERCENT POSITIVE 2 HR” value is recorded as 100%, the “FLUORESCENCE - PERCENT POSITIVE 3 HR” value came out at 100% and the “FLUORESCENCE - PERCENT POSITIVE 4 HR” value came to 100%. For the same compound, the “NO. GROWTH POSITIVE 168 HR” value in test [2] (setting [9]) is given as 3. In addition, in test [2] (setting [10]), the “NO. GROWTH POSITIVE 168 HR” value stood at 2.
On to Decaglyceryl Monooleate, for which, in test [1], the “accuracy of sterilization indicators compared to indicators made with untreated spores” value was “improved”. Moreover, the “FLUORESCENCE - PERCENT POSITIVE 1 HR” value is recorded as 0% in test [1] (setting [11]), 7.7% in test [1] (setting [12]), 0% in test [1] (setting [9]) and 0% in test [1] (setting [10]). The “FLUORESCENCE - PERCENT POSITIVE 2 HR” value in test [1] (setting [11]) is given as 0%; in test [1] (setting [12]), 23.1%; in test [1] (setting [9]), 0%; in test [1] (setting [10]) it was 50%. The “FLUORESCENCE - PERCENT POSITIVE 3 HR” value in test [1] (setting [11]) stood at 0%; in test [1] (setting [12]), 50%; in test [1] (setting [9]), 0%; in test [1] (setting [10]), 100%. The “FLUORESCENCE - PERCENT POSITIVE 4 HR” value in test [1] (setting [11]) was 0%; in test [1] (setting [12]), 73.1%; in test [1] (setting [9]), 0%; in test [1] (setting [10]) it was 100%. Also, the “NO. GROWTH POSITIVE 168 HR” value in test [2] (setting [11]) is 10; in test [2] (setting [12]), 26; in test [2] (setting [9]), 6; in test [2] (setting [10]), 2.
As for Decaglyceryl Monoisostearate, the “accuracy of sterilization indicators compared to indicators made with untreated spores” value in test [1] is “improved”. Besides, in test [1] (setting [9]), the “FLUORESCENCE - PERCENT POSITIVE 1 HR” value was 33.3%, the “FLUORESCENCE - PERCENT POSITIVE 2 HR” value stood at 77.8%, the “FLUORESCENCE - PERCENT POSITIVE 3 HR” value stood at 88.9% and the “FLUORESCENCE - PERCENT POSITIVE 4 HR” value stood at 88.9%. In addition, in test [1] (setting [10]), the “FLUORESCENCE - PERCENT POSITIVE 1 HR” value is listed as 37.5%, the “FLUORESCENCE - PERCENT POSITIVE 2 HR” value came to 100%, the “FLUORESCENCE - PERCENT POSITIVE 3 HR” value came to 100% and the “FLUORESCENCE - PERCENT POSITIVE 4 HR” value is reported as 100%. Also, in test [2] (setting [9]), the “NO. GROWTH POSITIVE 168 HR” value came to 9. The “NO. GROWTH POSITIVE 168 HR” value in test [2] (setting [10]) was 8.
With POE(60) Sorbitol Tetrastearate, in test [1] (setting [9]), the “FLUORESCENCE - PERCENT POSITIVE 1 HR” value turned out to be 0%, the “FLUORESCENCE - PERCENT POSITIVE 2 HR” value was 0%, the “FLUORESCENCE - PERCENT POSITIVE 3 HR” value was 0% and the “FLUORESCENCE - PERCENT POSITIVE 4 HR” value is 0%. For the same compound, the “NO. GROWTH POSITIVE 168 HR” value in test [2] (setting [9]) is reported as 5.
For POE(60) Sorbitol Tetraoleate, in test [1] (setting [9]), the “FLUORESCENCE - PERCENT POSITIVE 1 HR” value turned out to be 0%, the “FLUORESCENCE - PERCENT POSITIVE 2 HR” value turned out to be 0%, the “FLUORESCENCE - PERCENT POSITIVE 3 HR” value came to 0% and the “FLUORESCENCE - PERCENT POSITIVE 4 HR” value is given as 0%. For the same compound, in test [1] (setting [10]), the “FLUORESCENCE - PERCENT POSITIVE 1 HR” value came to 0%, the “FLUORESCENCE - PERCENT POSITIVE 2 HR” value turned out to be 0%, the “FLUORESCENCE - PERCENT POSITIVE 3 HR” value is listed as 0% and the “FLUORESCENCE - PERCENT POSITIVE 4 HR” value was found to be 0%. Besides, the “NO. GROWTH POSITIVE 168 HR” value in test [2] (setting [9]) stood at 2. For the same compound, the “NO. GROWTH POSITIVE 168 HR” value in test [2] (setting [10]) came to 2.
For Hexaglyceryl Distearate, the “accuracy of sterilization indicators compared to indicators made with untreated spores” value in test [1] is “improved”. Also, the “FLUORESCENCE - PERCENT POSITIVE 1 HR” value in test [1] (setting [13]) turned out to be 27.6%; in test [1] (setting [11]) it was 30.3%; in test [1] (setting [12]), 71.4%. Also, the “FLUORESCENCE - PERCENT POSITIVE 2 HR” value is 51.7% in test [1] (setting [13]), 57.6% in test [1] (setting [11]) and 100% in test [1] (setting [12]). Besides, the “FLUORESCENCE - PERCENT POSITIVE 3 HR” value in test [1] (setting [13]) was 58.6%; in test [1] (setting [11]), 97%; in test [1] (setting [12]), 100%. The entries for the “FLUORESCENCE - PERCENT POSITIVE 4 HR” value in test [1] (setting [13]), in test [1] (setting [11]) and in test [1] (setting [12]) were 62.1%, 100% and 100%, respectively. The “NO. GROWTH POSITIVE 168 HR” value came out at 29 in test [2] (setting [13]), 33 in test [2] (setting [11]) and 21 in test [2] (setting [12]).
